The values that follow come from patent US10201536B2, “Methods and pharmaceutical compositions for the treatment of bacterial infections in patients suffering from cirrhosis” (INSERM (INSTITUT NATIONAL DE LA SANTE ET DE LA RECHERCHE …, priority 2015, dated 2019).

What all share (format): cell-based
For experiment [1], the target named is T1, elastase (Homo sapiens, UniProt P08246).
T1 construct: with plasma of healthy volunteers or cirrhotic patients, (25% plasma in 1 ml RPMI containing 5×10^6 PMN); from tissue; host or cells: plasma of cirrhotic patients, incubated with healthy human PMN
T1 sequence (P08246 30-267): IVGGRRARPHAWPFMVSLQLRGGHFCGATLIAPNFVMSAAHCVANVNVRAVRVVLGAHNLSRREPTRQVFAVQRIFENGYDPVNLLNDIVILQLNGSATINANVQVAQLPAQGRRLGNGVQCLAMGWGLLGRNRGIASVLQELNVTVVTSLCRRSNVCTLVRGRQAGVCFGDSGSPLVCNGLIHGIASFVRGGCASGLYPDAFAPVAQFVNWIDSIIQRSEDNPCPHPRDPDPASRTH
The experiment is described as follows: gp91phox surface expression of healthy PMN treated with plasma from cirrhotic patients, with NEI. The following applies: 12 H, 25% plasma, 100 μM. As for the experimental part: (§1) FIG. 9. Plasma from cirrhotic patients reduces gp91phox expression at the surface of healthy PMN and ROS production in NEI-sensitive manner. PMN were pretreated for 12 H at 37° C. with RPMI (control) or with plasma of healthy volunteers or cirrhotic patients, (25% plasma in 1 ml RPMI containing 5×10^6 PMN) either in the absence or presence of the elastase inhibitor NEI (100 μM). PMN were labelled with the anti-gp91phox FITC-coupled antibody. (A) Quantification of the number of positive cells labeled with the anti-gp91phox FITC-coupled antibody (7D5) by Flow cytometry, expressed as percentage of control values. […] (C, D) Time course production of superoxide induced by PMA by healthy PMN which were pretreated for 12 H in the absence (Buffer/RPMI) or presence of plasma from healthy volunteers and cirrhotic patients, either with or without 100 μM NEI. (E) Production of superoxide expressed as percentage of control values (mean±SEM, n=5). […]
(§2) Granulocyte elastase is released during infectious processes and has been proposed to be helpful for the diagnosis of patients with spontaneous bacterial peritonitis (Casafon et al., 1999), a major complication of the alcoholic liver cirrhosis. […] Consistent with this observation, patients' plasmas inhibited NOX2 activity of PMN measured by the cytochrome C assay (FIGS. 9C-E) and chemiluminescence.

The target in experiment [2] is T2, neutrophil elastase (Homo sapiens, UniProt P08246).
T2 construct: a cell-free degranulation supernatant obtained from fMLP (1 μM, 2 min) stimulated PMN; endogenous in cells; host or cells: healthy human PMN stimulated with fMLP, or their cell-free degranulation supernatant
T2 sequence (P08246 30-267): T1 sequence (P08246 30-267)
The experiment is described as follows: fMLP-induced depletion of gp91phox and p22phox in healthy PMN with elastase inhibitor. The settings on record: 100 μM 15 min before fMLP (1 μM) 45 min. As for the experimental part: (§3) FIG. 8. Elastase induces the degradation of gp91phox and p22phox in healthy PMN. (A and B) Western-blot analysis and densitometric quantification of gp91phox and p22phox in healthy PMN treated in the absence or presence of elastase at 0.1 and 0.5 units for 1 hour. (C and D) Western-blot analysis densitometric quantification of gp91phox and […] in healthy PMN treated in the absence or presence of the elastase inhibitor (NEI) at 100 μM for 15 min before stimulation with fMLP (1 μM) for 45 min. (E) Western-blot analysis densitometric quantification of gp91phox in healthy PMN pretreated in the absence or presence of the elastase inhibitor (NEI) at 100 μM for 15 min before incubation for 45 min with a cell-free degranulation supernatant obtained from fMLP (1 μM, 2 min) stimulated PMN. Blots are representative of 4 experiments and densitometric analyses are cumulative and expressed as percentage of the actin level. […] (F) Sensorgrams of the PMN specific binding and dissociation to the anti-gp91phox antibody (7D5) coated to the CM3 sensorchip, analysed with the Biacore X100, as a function of time. […] Data are representative of 3 independent experiments are expressed as resonance unit (RU). (G) Flow cytometry quantification of the Gp91phox expression at the surface of PMN treated or not (Control) with 0.5 unit Elastase at 4° C. […]

The target of experiment [3] is T1, elastase. Nature of the experiment: NOX2 activity (superoxide production) of healthy PMN treated with plasma from cirrhotic patients, with NEI. The following applies: 12 H, 25% plasma, 100 μM, PMA-induced superoxide. As for the experimental part: as §1, §2
The target in experiment [4] is T2, neutrophil elastase. The experiment is described as follows: gp91phox degradation in healthy PMN by cell-free degranulation supernatant with elastase inhibitor. The following applies: 100 μM 15 min pretreatment, 45 min supernatant. The method, then:
as §3

Residues, ends and D or L forms follow the SMILES beside them. *: point of attachment. MeOSuc = COC(=O)CCC(=O)*; CH2Cl = ClC*

For `COC(=O)CCC(=O)N[C@@H](C)C(=O)N[C@@H](C)C(=O)N1CCC[C@H]1C(=O)N[C@H](C(=O)CCl)C(C)C` [NEI, MeOSuc-AAPV-CMK] (MeOSuc-AAPV-CH2Cl), the “decrease of gp91phox positive cells and surface expression caused by patients' plasma” value on elastase [1] is recorded as “prevented”. The “fMLP-induced depletion of gp91phox and p22phox” value on neutrophil elastase [2] is on record as “prevented”. Besides, the “inhibition of NOX2 activity by patients' plasma” value at elastase [3] is on record as “prevented the inhibitory effects”. The “gp91phox degradation by cell-free degranulation supernatant” value on neutrophil elastase [4] is reported as “blocked gp91phox degradation”.
